ChEMBL document CHEMBL3596145, “Structure and inhibition studies of a type II beta-carbonic anhydrase psCA3 from Pseudomonas aeruginosa” (Bioorg Med Chem, 2015)
Calls of active or inactive are those of the source. The calls are words filed in the database; no cut-off is given here.

What follows are molecules tested on Pseudomonas aeruginosa (assay: Growth inhibition of Pseudomonas aeruginosa PAO1).
Format: functional, organism-based

`NS(N)(=O)=O` [SULFAMIDE] was tested, and the “growth inhibition (GI)” value was “inactive”.

What follows are molecules tested against T1, Carbonic anhydrase (Pseudomonas aeruginosa (strain ATCC 15692 / PAO1 / 1C / PRS 101 / LMG12228), UniProt Q9HVB9) (assay: biochemical).
T1 sequence (Q9HVB9 whole entry): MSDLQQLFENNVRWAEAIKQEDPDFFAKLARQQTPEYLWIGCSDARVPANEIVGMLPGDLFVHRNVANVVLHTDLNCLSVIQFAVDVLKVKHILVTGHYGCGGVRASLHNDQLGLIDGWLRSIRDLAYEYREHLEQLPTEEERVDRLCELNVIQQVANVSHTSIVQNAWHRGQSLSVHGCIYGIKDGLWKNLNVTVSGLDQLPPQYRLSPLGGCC
Format: cell-based, BL21-DE3
Description: Inhibition of Pseudomonas aeruginosa PAO1 type-2 beta-carbonic anhydrase psCA3 expressed in Escherichia coli Tuner BL21 (DE3) cells pre-incubated for 15 mins at pH 8.3 and 293K by CO2 hydration reaction based colorimetric stopped-flow method

Compared with `O=S(=O)(O)OOS(=O)(=O)O` [SODIUM PERSULFATE], `O=S(=O)(O)ONOS(=O)(=O)O` [SODIUM IMINODISULFATE] is 6.5-fold higher in Ki: 720 µM for the first, 4700 µM for the second.

`[N-]=[N+]=[N-]` [SODIUM AZIDE] and `N#CO` [SODIUM CYANATE] are within 1.5-fold of each other in Ki: 770 µM for the first, 650 µM for the second.

First: NS(=O)(=O)O [SULFAMATE]
Second: NS(N)(=O)=O [SULFAMIDE]
The Ki of the first is 4.8-fold higher: 38 µM for the first, 8 µM for the second. The second binds more tightly here.

Compared with `S=C(S)S` [SODIUM CARBONOTRITHIOATE], `CCN(CC)C(=S)S` [DITIOCARB SODIUM] is 2.5-fold lower in Ki: 840 µM for the first, 330 µM for the second. The second binds more tightly here.

Going from `O=[N+]([O-])[O-].[Na+]` [SODIUM NITRATE] to `O=S(=O)([O-])[O-].[Na+].[Na+]` [SODIUM SULFATE ANHYDROUS], the Ki rises from 14200 µM to > 100000 µM. The first binds more tightly here.

First: O=C([O-])O.[Na+] [SODIUM BICARBONATE]
Second: O=S([O-])O.[Na+] [SODIUM BISULFITE]
The Ki of the first is 2.2-fold lower: 3200 µM for the first, 7000 µM for the second. The first binds more tightly here.

`S` [SODIUM HYDROSULFIDE] and `N#C[SeH]` [SODIUM SELENOCYANATE] are within 1.5-fold of each other in Ki: 620 µM for the first, 680 µM for the second.

`F[B-](F)(F)F.[Na+]` [SODIUM TETRAFLUOROBORATE] and `[Cl-].[Na+]` [SODIUM CHLORIDE] cannot be ordered by Ki: > 100000 µM for the first, > 100000 µM for the second.

First: O=NO [SODIUM NITRITE]
Second: O=[Se](=O)(O)O [SODIUM SELENATE]
The Ki of the first is 25-fold lower: 940 µM for the first, 23500 µM for the second.

`[Br-].[Na+]` [SODIUM BROMIDE] and `[I-].[Na+]` [SODIUM IODIDE] cannot be ordered by Ki: > 100000 µM for the first, > 100000 µM for the second.

First: Nc1cccc(S(N)(=O)=O)c1
Second: OB(O)c1ccccc1 [PHENYLBORONIC ACID]
The Ki of the first is 250-fold lower: 0.032 µM for the first, 8 µM for the second.

Compared with `N#C[S-].[Na+]` [THIOCYANATE SODIUM], `[F-].[Na+]` [SODIUM FLUORIDE] is higher in Ki: 610 µM for the first, > 100000 µM for the second. The first binds more tightly here.

`O=[Te](=O)(O)O` [SODIUM TELLURATE] and `O=BOB(O)OB(O)OB=O` [SODIUM TETRABORATE] are within 1.5-fold of each other in Ki: 7900 µM for the first, 9100 µM for the second.

With `[O-][Cl+3]([O-])([O-])O` [SODIUM PERCHLORATE] the Ki was > 100000 µM.

The molecules below were run on Pseudomonas aeruginosa (assay: Induction of growth defect in Pseudomonas aeruginosa PAO1 up to 1 mM).
Format: functional, organism-based

With `NS(N)(=O)=O` [SULFAMIDE] the Activity was “Active”.

What follows are molecules tested on Pseudomonas aeruginosa (assay: Induction of growth delay of Pseudomonas aeruginosa PAO1 assessed as growth delay time).
Format: functional

`NS(N)(=O)=O` [SULFAMIDE] gave a Time of 1 h.
